Measured values taken from ChEMBL document CHEMBL1121922, “Synthesis and pharmacological evaluation of a series of analogues of 1-methylisoguanosine” (1981).
The source made the active and inactive calls. No cut-off for these calls is given here.

Columns and labels:
[1] = species on record: Mus musculus; test: Effective peroral dose for muscle relaxation in mice; type: functional; conditions: po
[2] = species on record: Mus musculus; test: Effective peroral dose hypothermic activity in mice; type: functional; conditions: po
[3] = system: Rattus norvegicus; test: Cardiovascular response in conscious hypertensive rats after administration of compound expressed as percent reduction in blood pressure; NA= No activity; type: functional, organism-based
[4] = system: Rattus norvegicus; test: Cardiovascular response in conscious hypertensive rats after administration of compound expressed as percent reduction in heart rate; NA= No activity; type: functional, organism-based
[5] = system: Rattus norvegicus; test: Antiallergic activity of compound (10mg/Kg, iv) was assessed by the inhibition of passive paw anaphylaxis in rats; NA= No activity; type: functional, organism-based
[6] = system: Rattus norvegicus; test: Antiinflammatory activity of compound (100 mg/kg) was assessed by inhibition of carrageenan-induced edema in rats; NA= No activity; type: functional, organism-based
[7] = system: Rattus norvegicus; test: Antiallergic activity of compound (10 mg/kg, iv) was assessed by the inhibition of passive paw anaphylaxis in rats; NA= No activity; type: functional, organism-based
[8] = system: Rattus norvegicus; test: Cardiovascular response in conscious hypertensive rats after administration of compound expressed as percent reduction in blood pressure; type: functional
[9] = system: Rattus norvegicus; test: Antiallergic activity of 10 mg/kg intravenous dose of compound was assessed by the inhibition of passive paw anaphylaxis in rats; type: functional
[10] = system: Rattus norvegicus; test: Antiinflammatory activity of 100mg/Kg, po compound was assessed by inhibition of carrageenan-induced edema in rats; NA= No activity; type: functional, organism-based
[11] = system: Rattus norvegicus; test: Cardiovascular response in conscious hypertensive rats after administration of compound expressed as percent reduction in heart rate; type: functional
[12] = system: Rattus norvegicus; test: Antiallergic activity of compound (10 mg/kg, iv) was assessed by the inhibition of passive paw anaphylaxis in rats; type: functional
[13] = system: Rattus norvegicus; test: Antiinflammatory activity of 50mg/Kg, po compound was assessed by inhibition of carrageenan-induced edema in rats; no activity; type: functional
[14] = system: Rattus norvegicus; test: Antiallergic activity of 10 mg/kg intravenous dose of compound was assessed by the inhibition of passive paw anaphylaxis in rats; NA= No activity; type: functional, organism-based; set-up: dose 10 mg/kg; conditions: at 10 mg/kg
[15] = system: Rattus norvegicus; test: Antiinflammatory activity of compound (50 mg/kg) was assessed by inhibition of carrageenan-induced edema in rats; type: functional
[16] = species on record: Mus musculus; test: Effective peroral dose for muscle relaxation in mice; 7.7-16.3; type: functional; conditions: po
[17] = species on record: Mus musculus; test: Effective peroral dose hypothermic activity in mice; 6.3-18.7; type: functional; conditions: po
[18] = system: Rattus norvegicus; test: Antiinflammatory activity of compound (25 mg/kg) was assessed by inhibition of carrageenan-induced edema in rats
[19] = species on record: Mus musculus; test: Effective peroral dose for muscle relaxation in mice; 9.9-39.2; type: functional; conditions: po
[20] = species on record: Mus musculus; test: Effective peroral dose hypothermic activity in mice; 2.2-71.9; type: functional; conditions: po
[21] = system: Rattus norvegicus; test: Antiinflammatory activity of compound (25 mg/kg) was assessed by inhibition of carrageenan-induced edema in rats; type: functional
[22] = species on record: Mus musculus; test: Effective peroral dose hypothermic activity in mice; 16.6-26.9; type: functional; conditions: po
[23] = system: Rattus norvegicus; test: Antiinflammatory activity of 25mg/Kg, po compound was assessed by inhibition of carrageenan-induced edema in rats; NA= No activity; type: functional, organism-based
[24] = species on record: Mus musculus; test: Effective peroral dose for muscle relaxation in mice; 24.7-35.2; type: functional; conditions: po
[25] = species on record: Mus musculus; test: Effective peroral dose for muscle relaxation in mice; 8.6-27.1; type: functional; conditions: po
[26] = species on record: Mus musculus; test: Effective peroral dose hypothermic activity in mice; 7.5-20.7; type: functional; conditions: po
[27] = system: Rattus norvegicus; test: Antiinflammatory activity of compound (20 mg/kg) was assessed by inhibition of carrageenan-induced edema in rats; type: functional

SMILES | ED50 [1] [mg/kg] | ED50 [2] [mg/kg] | BP [3] | HR [4] | BP [8] [%] | inhibition [10] | HR [11] [%] | Inhibition [12] [%] | also measured
Cn1c(=O)[nH]c2c(ncn2C2O[C@H](CO)[C@@H](O)[C@@H]2O)c1=N (some centres not stated) | > 100 | > 100 | Not significant | inactive | – | – | – | – | inhibition [5]: inactive; inhibition [6]: inactive
Cn1c(=O)[nH]c2c(nc(Br)n2C2O[C@H](CO)[C@@H](O)[C@H]2O)c1=N (some centres not stated) | > 100 | > 100 | Not significant | inactive | – | – | – | – | inhibition [7]: inactive; inhibition [6]: inactive
CCCCn1c(=O)[nH]c2c(ncn2C2O[C@H](CO)[C@@H](O)[C@H]2O)c1=N (some centres not stated) | > 100 | > 100 | – | – | -7 | inactive | -16 | – | inhibition in vivo at 10 mg/kg [9]: 35%
CCCCCCCCn1c(=O)[nH]c2c(ncn2C2O[C@H](CO)[C@@H](O)[C@H]2O)c1=N (some centres not stated) | > 100 | > 100 | Not significant | inactive | – | – | – | 14 | inhibition [6]: inactive
Nc1nc(=O)[nH]c2c1ncn2[C@@H]1O[C@H](CO)[C@@H](O)[C@H]1O [ISOGUANOSINE] | > 100 | > 100 | – | – | – | inactive | – | – | –
Cn1c(=O)[nH]c2c(ncn2COCCO)c1=N | > 100 | > 100 | Not significant | inactive | – | – | – | – | inhibition [5]: inactive; inhibition [6]: inactive
Cn1c(=N)c2ncn3c2n(c1=O)C[C@H]1OC3[C@H](O)[C@@H]1O.I | > 100 | > 100 | Not significant | inactive | – | – | – | – | inhibition in vivo at 10 mg/kg [9]: 45%; inhibition in vivo at 50 mg/kg [13]: 21%
Cn1c(=O)[nH]c2c(ncn2C2O[C@H](CO)[C@@H](O)[C@H]2O)c1=O (some centres not stated) | > 100 | > 100 | Not significant | inactive | – | inactive | – | – | inhibition [14]: inactive
CCn1c(=O)[nH]c2c(ncn2C2O[C@H](CO)[C@@H](O)[C@H]2O)c1=N (some centres not stated) | > 100 | > 100 | – | – | -18 | – | -27 | 40 | Inhibition [15]: 17%
Cn1c(N)c2nc([C@@H]3O[C@H](CO)[C@@H](O)[C@H]3O)nc-2[nH]c1=O | > 100 | > 100 | – | inactive | -9 | inactive | – | – | inhibition [14]: inactive
N=c1c2ncn(C3O[C@H](CO)[C@@H](O)[C@H]3O)c2[nH]c(=O)n1-c1ccccc1 (some centres not stated) | > 100 | > 100 | Not significant | inactive | – | inactive | – | – | inhibition in vivo at 10 mg/kg [9]: 30%
Cn1c(=O)[nH]c2c(nc(N)n2C2O[C@H](CO)[C@@H](O)[C@H]2O)c1=N (some centres not stated) | > 100 | > 100 | – | – | -10 | inactive | -20 | – | inhibition [14]: inactive
C[C@H]1OC(n2cnc3c(=N)n(C)c(=O)[nH]c32)[C@H](O)[C@@H]1O (some centres not stated) | > 100 | > 100 | Not significant | inactive | – | inactive | – | – | inhibition [14]: inactive
Cn1c(=O)[nH]c2c(ncn2C2O[C@H](CO)[C@@H](O)[C@H]2O)c1=N (some centres not stated) | – | – | – | – | -32 | – | -36 | 55 | ED50 [16]: 11.2 mg/kg; ED50 [17]: 10.9 mg/kg; Inhibition [18]: 62%
Cn1c(=O)[nH]c2c(ncn2C2O[C@H](COP(=O)(O)O)[C@@H](O)[C@H]2O)c1=N (some centres not stated) | – | – | – | – | -44 | – | -48 | 57 | ED50 [19]: 19.7 mg/kg; ED50 [20]: 12.6 mg/kg; Inhibition [21]: 46%
Cn1c(=O)[nH]c2c(ncn2C2O[C@@H]3COP(=O)(O)O[C@@H]3[C@@H]2O)c1=N (some centres not stated) | – | – | – | – | -17 | – | -37 | – | ED50 [22]: 21.2 mg/kg; inhibition in vivo at 10 mg/kg [9]: 14%; inhibition [23]: inactive; ED50 [24]: 29.5 mg/kg
Cn1c(=O)[nH]c2c(nc(NN)n2C2O[C@H](CO)[C@@H](O)[C@H]2O)c1=N (some centres not stated) | > 100 | > 100 | – | – | -13 | inactive | -21 | – | inhibition [14]: inactive
COc1nc(N)c2ncn([C@@H]3O[C@H](CO)[C@@H](O)[C@H]3O)c2n1 [BVT.115959] | – | – | – | – | -41 | – | -25 | 56 | ED50 [25]: 15.3 mg/kg; ED50 [26]: 12.5 mg/kg; Inhibition [27]: 25%; Inhibition [15]: 57%
Cn1c(=O)[nH]c2c(ncn2C2O[C@H](CI)[C@@H](O)[C@H]2O)c1=N (some centres not stated) | > 100 | > 100 | Not significant | inactive | – | – | – | 14 | inhibition [6]: inactive
